Key:
[1] = test system: B16-FLT3L melanoma; assay: B16-FLT3L melanoma model; type: in vivo, mouse; conditions: VitE plus ICT
[2] = test system: H-2Kb-SIINFEKL; assay: Antigen cross-presentation: H-2Kb-SIINFEKL on OVA-loaded DCs by flow cytometry; type: cell-based, mouse
Text: FIG. 4A: Flow cytometric analysis and quantification of H-2Kb-SIINFEKL in OVA-loaded sgCtrl or sgPtpn6-DC2.4 cells without or with TCM treatment (n=3). FIG. 4B: FCM analysis and quantification of H-2K^b-SIINFEKL in the vehicle or VitE-treated BMDCs with or without TCM treatment (n=5). Error bars, s.e.m. ns, no significant. *P<0.05, **P<0.01. ***P<0.001. ****P<0.0001.
The most critical function of DCs is the cross-presentation of tumor antigens to T-cells (Guermonprez et al., 2002). We assessed the membrane MHC-I complexes that were loaded with intracellularly processed OVA-derived peptide (H-2Kb-SIINFEKL) on OVA-loaded DCs with VitE-treatment. […] Therefore, VitE administration enhances the activation and antigen cross-presentation function of DCs to provoke antigen-specific antitumor T-cell immunity. We quantified H-2Kb-SIINFEKL in the vehicle-or VitE-treated sgCtrl-DC2.4 or sgPtpn6-DC2.4 (n=3). […] Thus. SHP1 inhibition in DCs by VitE treatment or Ptpn6 knockout enhances antigen cross-presentation that boosts CD8+ T-cell antitumor immunity.

[3] = test system: pY564-SHP1; assay: Reverse phase protein array (RPPA) of BMDCs; type: cell-based, mouse; conditions: VitE 50 μg/ml, tumor conditioned media, 48 hours
Experimental: FIG. 3A: Volcano plot of reverse phase protein array (RPPA) data of mouse BMDCs treated with VitE (50 μg/ml) compared to those treated with vehicle control with tumor conditioned media (TCM) for 48 hours (n=3 independent samples). […] The grey dashed line indicates P-value of 0.05. FIG. 3B: t-SNEs by CyTOF and quantification comparing the intensity of pY564-SHP1 in TADCs from the vehicle-or VitE-treated EMT6 tumors at day 15 post-implantation. FIG. 3C: Top, SHP1 knockdown in BMDCs was effective. Bottom, CFSE-dilution analysis of OT-1 T cells co-cultured with OVA protein-pulsed BMDCs (ratio 10:1) with knockdown of SHP1 by siPtpn6 versus siCtrl (n=3). Right, quantification of OT-1 T-cell numbers under the indicated condition. FIG. 3D: The binding of VitE to purified SHP1 is analyzed by microscale thermophoresis (MST) binding assay. […] FIG. 3E: Relative tyrosine phosphatase activity of SHP1 immunoprecipitated from LPS (100 ng/ml)-activated DC2.4 cells in the presence of indicated doses of VitE (mean of triplicates). FIG. 3F: SHP1 tyrosine phosphatase activity in LPS (100 ng/ml)-activated BMDCs (n=6) treated with vehicle-or VitE (50 μg/ml). Error bars, s.e.m. ns, no significant. *P<0.05, **P<0.01. ***P<0.001, ****P<0.0001.
To explore the molecular mechanism of VitE on DCs function, we performed a reverse-phase protein array (RPPA) analysis on DCs. […]

[4] = test system: B16-F10 melanoma; conditions: VitE and ICT combo-treatment
Experimental: For the melanoma tumor challenges, 2×10^5 B16-F10, B16-GMCSF, or B16-FLT3L cells were subcutaneously (s.c.) injected into the right flank of C57BL/6J mice on day 0.
(§1) Treatments were given as single agents or in combinations with the indicated regimens for each group. VitE (D-α-Tocopherol type VI, Cat.T1539, Sigma-Aldrich) was formulated in the vehicle (10% ethanol in sterile water) and administered by oral gavage once a day at a dose of 50 mg/kg body weight (100 μl at 10 mg/ml per day), corresponding to 400 to 600 mg/day in a human weighing 60 kg, which is within the range of doses recommended for supplement and pharmacological use. VitE treatment was initiated on day 4 ending until the ending point.
For tumor volume analysis, each tumor was measured every 3-4 days with a digital caliper beginning on day 7 after the challenge. Tumor volume was calculated using the formula V=(L×W^2)/2 and expressed as mm^3, where V is tumor volume, L is the length of the tumor (longer diameter) and W is the width of the tumor (shorter diameter). Mice were monitored for tumor growth and survival. Measurements were assessed manually by assessing the longest dimension (length, L) and the longest perpendicular dimension (width, W). Tumor volume was calculated using the formula: (L×W^2)/2.

[5] = test system: OT-1 T cells; assay: OT-1 T cell proliferation with OVA-loaded BMDCs; type: cell-based, mouse; conditions: VitE-treated, OVA-loaded BMDCs vs vehicle, day 3
Experimental: FIG. 2A: Percentage of human IFN-γ^+CD8^+ T cells in CD8^+ T cells in coculture with vehicle or VitE-treated autologous MoDCs (n=3). FIG. 2B: Representative flow cytometric analysis and quantification of antigen-specific OT-1 T cell proliferation stimulated with OVA-loaded mouse BMDCs that were treated with vehicle or VitE at day 3. FIG. 2C: Tumor growth curves of orthotopic EMT6 tumor-bearing mice treated with vehicle (Ctrl), Vitamin E (VitE), or VitE plus Cyt c (10 mg/kg. i.v, every other day starting on day 3) to deplete DCs (n=8/group). The statistical significance is defined by P-value: *P<0.05, **P<0.01, ***P<0.001. ****P<0.0001.
FIG. 3A: Volcano plot of reverse phase protein array (RPPA) data of mouse BMDCs treated with VitE (50 μg/ml) compared to those treated with vehicle control with tumor conditioned media (TCM) for 48 hours (n=3 independent samples). […] The grey dashed line indicates P-value of 0.05. FIG. 3B: t-SNEs by CyTOF and quantification comparing the intensity of pY564-SHP1 in TADCs from the vehicle-or VitE-treated EMT6 tumors at day 15 post-implantation. FIG. 3C: Top, SHP1 knockdown in BMDCs was effective. […] Right, quantification of OT-1 T-cell numbers under the indicated condition. FIG. 3D: The binding of VitE to purified SHP1 is analyzed by microscale thermophoresis (MST) binding assay. […]

[6] = test system: HY19636 KPC tumor; assay: Orthotopic HY19636 KPC PDAC tumor model; type: in vivo, mouse
Experimental: FIG. 6E: Measurement of maximal tumor diameter in HY1936 KPC tumor-bearing mice treated with gemcitabine (GEM, 25 mg/kg by i.p.) and ICT (anti-PDI/anti-CTLA4) along with vehicle or VitE (n=5). FIG. 6F: Kaplan-Meier survival curve of HY19636 KPC tumor-bearing mice treated with vehicle, GEM (gemcitabine, 25 mg/kg by i.p.), GEM+ICT (anti-PDI/anti-CTLA4) plus vehicle or VitE (n=6).
Syngeneic orthotopic PDAC tumors were established by surgical implantation. Briefly, 2,000 HY19636 KPC cells in 50 μl PBS were injected into each pancreas of the C57BL/6J mouse.
as §1
For chemo combination treatment, HY19636 KPC tumor-bearing mice were treated with gemcitabine (GEM) at 25 mg/kg body weight by i.p. injection once a week from day 7 and 4T1 TNBC tumor-bearing mice were given with doxorubicin (Dox, 5 mg/kg body weight) by i.v. once a week from day 10. The chemotherapeutic doses and schedules used in this study are below or within the range of the concentrations used in the clinic after converting drug doses between species.

[7] = VitE added to GEM+ICT vs GEM+ICT+vehicle

Cc1c(C)c2c(c(C)c1O)CC[C@@](C)(CCC[C@H](C)CCC[C@H](C)CCCC(C)C)O2 [VitE, D-α-Tocopherol]
ICT response [1]: effectively enhanced their ICT responses
H-2Kb-SIINFEKL molecules on sgPtpn6-DC2.4 cells ([2]; VitE treatment of SHP1-knockout cells): did not further increase H-2Kb-SIINFEKL molecules
H-2Kb-SIINFEKL molecules on DC2.4 cells ([2]; vs vehicle-treated sgCtrl-DC2.4 cells): significantly increased H-2Kb-SIINFEKL molecules on DC2.4 cells
phosphorylation of SHP1 at Y564 in DCs [3]: decreased the phosphorylation at tyrosine 564 (Y564)
therapeutic effect [4]: no therapeutic effect
antigen-specific OT-1 T cells in coculture [5]: increased the OVA-derived SIINFEKL antigen-specific OT-1 T cells in coculture
survival time [6, 7]: prolonged the survival time
tumor growth [6, 7]: effectively inhibited the HY19636KPC PDAC tumor growth
ascites ([6]; VitE added to GEM+ICT, day 25): reduced tumor-induced ascites
